The values that follow come from patent US20250368632A1, “CR[…] AND CONJUGATES THEREOF” (Universitat Bielefeld, priority 2021, published 2025).

What is called pIC50 is the IC50 on a negative log10 scale, so that one unit is a factor of ten.

In one test the test system is KB-V1 cells. Nature of the test: Resazurin cell viability (cytotoxicity) assay, 72 h incubation, KB-V1 cells (selected with vinblastine). To be noted: resazurin fluorescence, drug concentration at which vitality is 50%, read-out: IC50 values of cryptophycin compounds, KB-V1 cells. The test is classed as cell-based. As for the experimental part:
(§1) The KB-3-1 and KB—V1 cells were cultivated as a monolayer in DMEM (Dulbecco's modified Eagle medium) with glucose (4.5 g L^−1), L-glutamine, sodium pyruvate and phenol red, supplemented with 10% (KB-3-1) and 15% (KB—V1) fetal bovine serum. 50 μg mL^−1 gentamycin is added for the KB—V1 cells. The cells were maintained at 37° C. and 5.3% CO2/humidified air. KB—V1 cells were continuously selected during cultivation with vinblastine sulfate (150 nM). On the day before the test, the cells (70% confluence) were detached with trypsin/ethylenediaminetetraacetic acid (EDTA) solution (0.05%/0.02% in DPBS) and plated in sterile 96-well plates in a density of 10,000 cells in 100 μL medium per well. The dilution series of the compounds were prepared from stock solutions in DMSO of concentrations of […]. The stock solutions were diluted with culture medium (15% FBS [KB—V1]; 10% FBS [KB-3-1]) at least 50 times. Some culture medium was added to the wells to adjust the volume of the wells to the wanted dilution factor. The dilution prepared from stock solution was added to the wells. Each concentration was tested in six replicates. Dilution series were prepared by pipetting liquid from well to well. The control contained the same concentration of DMSO as the first dilution. After incubation for 72 h at 37° C. and 5.3% CO2/humidified air, 30 μL of an aqueous resazurin solution (175 μM) was added to each well. The cells were incubated at the same conditions for 6 h. Subsequently, the fluorescence was measured. The excitation was effected at a wavelength of 530 nm, whereas the emission was recorded at a wavelength of 588 nm. The IC50 values were calculated as a sigmoidal dose response curve using GraphPad Prism 4.03. The IC50 values equal the drug concentrations, at which vitality is 50%.
Background: Resazurin is reduced to fluorescent resorufin, in cell work by metabolically active cells.

A further test has as its system KB-3-1 cells. Nature of the test: Resazurin cell viability (cytotoxicity) assay, 72 h incubation, KB-3-1 cells. The test is classed as cell-based. To be noted: resazurin fluorescence, drug concentration at which vitality is 50%, read-out: IC50 values of cryptophycin compounds, KB-3-1 cells. As for the experimental part: as §1

pIC50: −log10 of the molar value. A value given as a limit tells only on which side of the number the result lay.

Consider “Cryptophycin-uD[Dap(Alloc,Me)] [Compound P10]”, for which the negative logarithm of the IC50 (pIC50) is 6.05 in the test on KB-V1 cells and 10.35 in the test on KB-3-1 cells.

With “Cryptophycin-[uD-Lys(Alloc)] [Compound G5]”, the negative-log IC50 (pIC50) is below 6.30 in the test on KB-V1 cells and 5.38 with KB-3-1 cells.

With Cryptophycin-[uD-Met] [Compound T7], the results for the pIC50 in the test on KB-V1 cells and with KB-3-1 cells were 7.31 and 10.70, respectively.

Regarding Cryptophycin-[uD-Thr] [Compound Z7], the figures for the pIC50 in the test with KB-V1 cells and in the test on KB-3-1 cells were 6.52 and 10.59, respectively.

Take “Cryptophycin-[uD-Thr(Allyl)] [Compound Z6]”: the pIC50 with KB-V1 cells is below 6.00; in the test with KB-3-1 cells, 8.82.

As to “Cryptophycin-uD[Dab(Alloc,Me)] [Compound B10]”, the negative logarithm of the IC50 (pIC50) is 7.05 in the test on KB-V1 cells and 10.68 in the test with KB-3-1 cells.

As to “Cryptophycin-uD[Dap(AII, Me)] [Compound C10]”, the negative logarithm of the IC50 (pIC50) in the test on KB-V1 cells is 9.06; with KB-3-1 cells, 10.68.

Cryptophycin-uD[Dap(Me)] [Compound P11]: the negative logarithm of the IC50 (pIC50) in the test with KB-V1 cells was 7.68; in the test on KB-3-1 cells, 11.06.

As to Cryptophycin-[uD-Dab-Me2] [Compound C7], the negative logarithm of the IC50 (pIC50) in the test on KB-V1 cells was 6.68; with KB-3-1 cells, 10.42.

“Cryptophycin-[uD-Ser(AII)] [Compound H7]”: the pIC50 in the test on KB-V1 cells is 7.54; in the test on KB-3-1 cells, 10.96.

On to “Cryptophycin [Compound H8, Cryptophycin [uD-Ser]]”, for which the pIC50 in the test on KB-V1 cells is 5.96; in the test on KB-3-1 cells, 9.92.

Consider Cryptophycin-[uD-HSe] [Compound Y8], for which the pIC50 in the test on KB-V1 cells is below 6.30; in the test with KB-3-1 cells, 9.10.

Consider Cryptophycin-[uD-Lys] [Compound G6], for which the pIC50 was below 6.30 with KB-V1 cells and 4.22 in the test with KB-3-1 cells.

Turning to “Cryptophycin-[uD-Dab(Alloc)] [Compound C5]”, the negative-log IC50 (pIC50) was 6.40 in the test on KB-V1 cells and 9.66 in the test with KB-3-1 cells.

With Cryptophycin-[uD-Dab] [Compound C6], the pIC50 in the test with KB-V1 cells is below 4.30; with KB-3-1 cells, 9.00.

Consider “Cryptophycin-[uD-HSe(AII)] [Compound Y7]”, for which the negative logarithm of the IC50 (pIC50) was 7.03 in the test on KB-V1 cells and 10.74 in the test with KB-3-1 cells.
